Results published in paper PMC9686514, “Design of Antimicrobial Peptides with Cell-Selective Activity and Membrane-Acting Mechanism against Drug-Resistant Bacteria” (Antibiotics, 2022).
Where no end group is shown, it is not given here.

What was measured:
Assay type in all cases: cell-based
[1] = tested on: rat red blood cells; assay: Hemolysis; conditions: 6.25 µM; 8% (v/v) rat RBCs in PBS, 1 h, 37 °C, absorbance 414 nm
Procedure: Fresh rat erythrocytes were collected and washed by centrifugation at 1000× g for 10 min with PBS. The rat RBCs (8% (v/v)) were added in a two-fold serially diluted peptide with PBS, followed by incubation for 1 h at 37 °C. After centrifugation of samples at 1000× g for 10 min, the supernatants were collected and their absorbance was measured at 414 nm. The 8% RBCs dissolved in PBS and RBCs treated with Triton X-100 were considered as the negative and positive controls, respectively. The hemolysis activity was calculated using the formula, % hemolysis = [(Abssample − Absnegative)/(Abspositive − Absnegative)] × 100 [43, 44].

[2] = tested on: HaCaT (human keratinocyte) cells; assay: Cytotoxicity (MTT); conditions: 200 µM, 24 h, 37 °C
Procedure: To examine the cytotoxic effect of peptides, HaCaT (human keratinocyte) cells were sub-cultured in Dulbecco’s modified Eagle medium (DMEM) containing 10% fetal bovine serum, 100 µg/mL streptomycin, and 100 U/mL penicillin at 37 °C in a 5% CO2 chamber. The cells seeded into 4 × 10^3 cells/well were incubated for 24 h. Peptide solutions diluted with DMEM were incubated with cells for 24 h at 37 °C. 3-(4,5-Dimethyl-2-thiazolyl)-2,5-diphenyltetrazolium Bromide (MTT) solution was added to the cells, followed by additional incubation for 4 h. After removing the media, 200 µL of dimethyl sulfoxide was added to the wells. Absorbance of each well was measured at 570 nm using a microtiter reader (Molecular Devices Emax, CA, USA).

[3] = tested on: Pseudomonas aeruginosa (ATCC 15692); conditions: ATCC 15692, 24 h, pH 7.2
Description: (§1) Pseudomonas aeruginosa (ATCC 15692), Escherichia coli (ATCC 25922), and Staphylococcus aureus (ATCC 25923) were purchased from the American Type Culture Collection. Listeria monocytogens (KCTC 3710) and Bacillus subtilis (KCTC 1998) were from the Korean Collection for Type Cultures. Drug-resistant S. aureus (DRSa-001~005) and P. aeruginosa (DRPa-001~005) were collected from Paik Hospital of Inje University in Busan, South Korea. Pre-cultured bacteria grown to mid-log phase were suspended in 10 mM sodium phosphate (SP, pH 7.2) or phosphate-buffered saline (PBS, pH 7.2) with 10% culture media. Bacterial suspensions were added to each peptide dilute (final 5 × 10^5 colony-forming units (cfu)/mL), after which the plates were incubated at 37 °C for 24 h. The turbidity of each well was measured at the absorbance at 600 nm and the morphology of bacterial growth was observed under light microscopy. MICs (Minimum inhibitory concentrations) were defined as the lowest concentration of peptide that expresses the complete inhibition of bacterial growth.

[4] = tested on: Listeria monocytogenes (KCTC 3710); conditions: KCTC 3710, 24 h, pH 7.2
Description: as §1

[5] = tested on: Staphylococcus aureus (ATCC 25923); conditions: ATCC 25923, 24 h, pH 7.2
Description: as §1

[6] = tested on: Escherichia coli (ATCC 25922); conditions: ATCC 25922, 24 h, pH 7.2
Description: as §1

[7] = tested on: Bacillus subtilis (KCTC 1998); conditions: KCTC 1998, 24 h, pH 7.2
Description: as §1

MIC, Pa [3] | MIC, Pa (numbers in parentheses) [3] | MIC, Lm [4] | MIC, Lm (numbers in parentheses) [4] | MIC, Sa [5] | MIC, Sa (numbers in parentheses) [5] | MIC, Ec [6] | MIC, Ec (numbers in parentheses) [6] | MIC, Bs [7] | MIC, Bs (numbers in parentheses) [7] | Compound | Hemolytic effect [1] | Cell survival [2]
– | – | – | – | – | – | – | – | – | – | CC[C@H](C)[C@H](NC(=O)CN)C(=O)NCC(=O)N[C@@H](C)C(=O)N[C@H](C(=O)N[C@@H](CC(C)C)C(=O)N[C@@H](CCCCN)C(=O)N[C@H](C(=O)N[C@@H](CC(C)C)C(=O)N[C@H](C(=O)N[C@H](C(=O)NCC(=O)N[C@@H](CC(C)C)C(=O)N1CCC[C@H]1C(=O)N[C@@H](C)C(=O)N[C@@H](CC(C)C)C(=O)N[C@H](C(=O)N[C@@H](CO)C(=O)N[C@@H](Cc1c[nH]c2ccccc12)C(=O)N[C@H](C(=O)N[C@@H](CCCCN)C(=O)N[C@@H](CCCNC(=N)N)C(=O)N[C@@H](CCCCN)C(=O)N[C@@H](CCCNC(=N)N)C(=O)N[C@@H](CCC(N)=O)C(=O)N[C@@H](CCC(N)=O)C(N)=O)[C@@H](C)CC)[C@@H](C)CC)[C@@H](C)O)[C@@H](C)O)C(C)C)C(C)C [Melittin] | strong hemolytic effect | less than 20%
2(2) μM | 2(2) μM | 0.5 µM | 1 µM | 4 µM | 8 µM | 4(4) μM | 4(4) μM | 1 µM | 2 µM | KKIIKKIIKKIWKW-NH2 [KIW-14] | – | –
16 µM | 64 µM | 4 µM | 128 µM | 16 µM | 128 µM | 8 µM | 64 µM | 4 µM | 32 µM | KKIIKKIWKW-NH2 [KIW-10] | – | –
16 µM | 64 µM | 2 µM | 64 µM | 16 µM | 128 µM | 8 µM | 64 µM | 2 µM | 32 µM | KKIWKKWIKI-NH2 [KWI-10] | – | –
2(2) μM | 2(2) μM | 0.5 µM | 1 µM | 4 µM | 8 µM | 4(4) μM | 4(4) μM | 1 µM | 2 µM | KKIWKKWIKKIIKI-NH2 [KWI-14] | – | –
16 µM | 32 µM | 2 µM | 8 µM | 8 µM | 16 µM | 8 µM | 16 µM | 2 µM | 4 µM | RRIIRRIWRW-NH2 [RIW-10] | – | –
16 µM | 32 µM | 2 µM | 8 µM | 8 µM | 16 µM | 2 µM | 4 µM | 1 µM | 4 µM | RRIWRRWIRI-NH2 [RWI-10] | – | –
8 µM | 32 µM | 4 µM | 8 µM | 16 µM | 128 µM | 4 µM | 64 µM | 2 µM | 8 µM | WIKKIWKKIIKEIK-NH2 [WIKE-14] | – | –
2(2) μM | 2(2) μM | 0.5 µM | 1 µM | 2((2) μM | 2((2) μM | 4(4) μM | 4(4) μM | 1(1) μM | 1(1) μM | WIKKIWKKIIKKIK-NH2 [WIK-14] | – | –
8 µM | 32 µM | 2 µM | 16 µM | 8 µM | 64 µM | 8 µM | 32 µM | 2 µM | 8 µM | WIKKIWKKIK-NH2 [WIK-10] | – | –
4 µM | 8 µM | 2(2) μM | 2(2) μM | 4 µM | 8 µM | 2 µM | 4 µM | 1(1) μM | 1(1) μM | WIRRIWRRIR-NH2 [WIR-10] | – | –
